Reference: article PMC4298654, “In vivo formation of N-acyl-fumonisin B1” (Mycotoxin Research, 2014)

Experiment: In vivo formation of NAFB1 and NAHFB1 in rat kidney and liver (HPLC-ESI-MS/MS)
Parameters: N-acyl-derivative in tissue sample, analysis a / N-acyl-derivative in tissue sample, analysis b / N-acyl-derivative in tissue sample, mean: unit not given here
Conditions: 5 days
Excerpt: The study protocol was approved by the Institutional Animal Care and Use Committee, Richard B. Russell Agricultural Research Center, Athens, GA. Male Sprague–Dawley rats (Harlan Industries, Indianapolis, IN, USA), 7 weeks of age at receipt, were individually housed in stainless steel, wire mesh cages in an environmentally controlled room having a 12-h light/dark cycle. Food (2019 Global Rodent Diet, Teklad, Madison, WI, USA) and fresh tap water were provided ad libitum. After a 1 week acclimation period, the animals were randomly assigned to five groups (n = 2/group) having mean weights of 215 to 216 g (weight range of all animals, 211 to 220 g). For five consecutive days, they were observed, weighed, and given an intraperitoneal injection (ip) of 0 (vehicle), 0.5, 1.0, or 2.0 mg/kg body weight FB1 (provided by R. Eppley, US FDA), 1.0 mg/kg body weight HFB1 (positive control) (Voss et al. [2009]), or vehicle (0.9 % physiological saline). These doses corresponded to 0.69, 1.38, and 2.77 μmol FB1/kg body weight and 2.47 μmol/kg body weight HFB1 per day. In order to compare the effects of FB1 and HFB1, dosages will be expressed as molar concentrations and, on this basis, the high dose of FB1 is roughly equivalent to that of the positive control dose of HFB1. Dosing solutions were sterile filtered and administered at a volume rate of 10 ml/kg body weight. The animals were fasted overnight prior to administration of the final dose. The rats were euthanized (CO2 inhalation and exsanguination) 60 to 90 min following the final dose administration and examined by necropsy. The kidney and liver specimens were fixed in 10 % neutral buffered formalin, processed, and microscopically evaluated without knowledge of the animal’s identity or treatment group. Three representative liver and kidney specimens (100 mg each) were also collected, immediately frozen, and stored (−80 °C) until processed, at which time the tissues were thawed and homogenized in distilled/deionized water (1 ml water/100 mg tissue). The homogenates were lyophilized before they were shipped by overnight courier for the analysis of fumonisin metabolites and sphingolipids.
Lyophilized liver and kidney tissues (100 mg wet weight equivalents) were processed for the quantification of FB1, HFB1, NAFB1, NAHFB1, and sphingolipids. Preparation of the tissue samples was performed according to a previously published method (Harrer et al. [2013]). For the quantification of FB1 and HFB1, a d6-labeled derivative of FB1 (FB1-d6) was used as the internal standard. Synthetic derivatives with a heptadecanoic fatty acid (C17:0) residue were used as internal standards for the quantification of N-acyl-fumonisins and ceramides (N-C17:0-FB1, N-C17:0-HFB1, and N-C17:0-ceramide). The sphingoid bases and their phosphate derivatives were quantified using synthetic derivatives with a C17-acyl-backbone: sphingosine (C17:1), sphingosine-1-phosphate (C17:1), sphinganine (C17:0), sphinganine-1-phosphate (C17:0) as internal standards. The standards were dissolved in methanol:chloroform (2:1, v/v) and then mixed with the tissue samples. The samples spiked with internal standard were kept at room temperature for 30 min before being processed further. The internal standard-spiked samples were first extracted with ethyl acetate, isopropanol, and water (60:30:10, v/v/v) and a second time using methanol, chloroform, and water (60:30:10, v/v/v). The extracts were combined, the solvents removed by evaporation, and the dried samples stored at−80 °C till analyzed.
For the analysis, the samples were reconstituted in a mixture of water, methanol, and tetrahydrofurane (60:24:16, v/v/v). The NAFB1 and NAHFB1 derivatives having the following fatty acyl chain lengths were quantified by HPLC-MS/MS: C16:0, C18:0, C20:0, C22:0, C24:0, C26:0. Furthermore, we also quantified the unsaturated derivatives C24:1 and C26:1. The results are given as the sum of all N-acyl derivatives of FB1 or HFB1. […]

[1] = Kidney, treatment FB1 0,5 mg/kg BW ip
[2] = Kidney, treatment FB1 1 mg/kg BW ip
[3] = Kidney, treatment FB1 2 mg/kg BW ip
[4] = Kidney, treatment HFB1 1 mg/kg BW ip
[5] = Liver, treatment FB1 0,5 mg/kg BW ip
[6] = Liver, treatment FB1 1 mg/kg BW ip
[7] = Liver, treatment FB1 2 mg/kg BW ip
[8] = Liver, treatment HFB1 1 mg/kg BW ip

SMILES | N-acyl-derivative in tissue sample, analysis a [2] | N-acyl-derivative in tissue sample, analysis b [2] | N-acyl-derivative in tissue sample, mean [2] | N-acyl-derivative in tissue sample, analysis a [3] | N-acyl-derivative in tissue sample, analysis b [3] | N-acyl-derivative in tissue sample, mean [3] | N-acyl-derivative in tissue sample, analysis a [4] | N-acyl-derivative in tissue sample, analysis b [4] | N-acyl-derivative in tissue sample, mean [4] | N-acyl-derivative in tissue sample, analysis a [5] | N-acyl-derivative in tissue sample, analysis b [5] | N-acyl-derivative in tissue sample, mean [5] | N-acyl-derivative in tissue sample, analysis a [6] | N-acyl-derivative in tissue sample, analysis b [6] | N-acyl-derivative in tissue sample, mean [6] | N-acyl-derivative in tissue sample, analysis a [7] | N-acyl-derivative in tissue sample, analysis b [7] | N-acyl-derivative in tissue sample, mean [7] | N-acyl-derivative in tissue sample, analysis a [8] | N-acyl-derivative in tissue sample, analysis b [8] | also measured
CCCCCCCCCCCCCCCC(=O)N[C@@H](C)[C@@H](O)C[C@H](O)CCCC[C@@H](O)C[C@H](C)C[C@H](O)[C@H](O)[C@H](C)CCCC [HFB1C16:0] | 0,2 | 0,1 | 0,2 | 0,3 | 0,5 | 0,4 | 22,7 | 37,3 | 30,0 | 0,3 | 0,4 | 0,3 | 0,0 | 0,4 | 0,2 | 0,0 | 0,3 | 0,1 | 34,9 | 44,3 | N-acyl-derivative in tissue sample, analysis a [1]: 0,0; N-acyl-derivative in tissue sample, analysis b [1]: 0,2; N-acyl-derivative in tissue sample, mean [1]: 0,1; N-acyl-derivative in tissue sample, mean [8]: 39,6
CCCCCCCCCCCCCCCCCC(=O)N[C@@H](C)[C@@H](O)C[C@H](O)CCCC[C@@H](O)C[C@H](C)C[C@H](O)[C@H](O)[C@H](C)CCCC [HFB1C18:0] | 0,1 | 0,0 | 0,1 | 0,0 | 0,1 | 0,1 | 2,6 | 1,8 | 2,2 | 0,3 | 0,1 | 0,2 | 0,0 | 0,0 | 0,0 | 0,0 | 0,0 | 0,0 | 1,5 | 2,0 | N-acyl-derivative in tissue sample, analysis a [1]: 0,1; N-acyl-derivative in tissue sample, analysis b [1]: 0,2; N-acyl-derivative in tissue sample, mean [1]: 0,2; N-acyl-derivative in tissue sample, mean [8]: 1,8
CCCCCCCCCCCCCCCCCCCC(=O)N[C@@H](C)[C@@H](O)C[C@H](O)CCCC[C@@H](O)C[C@H](C)C[C@H](O)[C@H](O)[C@H](C)CCCC [HFB1C20:0] | 0,0 | 0,1 | 0,1 | 0,0 | 0,0 | 0,0 | 3,1 | 0,6 | 1,8 | 0,0 | 0,2 | 0,1 | 0,2 | 0,1 | 0,2 | 0,0 | 0,0 | 0,0 | 8,9 | 13,1 | N-acyl-derivative in tissue sample, analysis a [1]: 0,0; N-acyl-derivative in tissue sample, analysis b [1]: 0,0; N-acyl-derivative in tissue sample, mean [1]: 0,0; N-acyl-derivative in tissue sample, mean [8]: 11,0
CCCCCCCCCCCCCCCCCCCCCC(=O)N[C@@H](C)[C@@H](O)C[C@H](O)CCCC[C@@H](O)C[C@H](C)C[C@H](O)[C@H](O)[C@H](C)CCCC [HFB1C22:0] | 0,0 | 0,0 | 0,0 | 0,0 | 0,0 | 0,0 | 1,5 | 4,3 | 2,9 | 0,0 | 0,0 | 0,0 | 0,0 | 0,0 | 0,0 | 0,0 | 0,0 | 0,0 | 61,0 | 45,8 | N-acyl-derivative in tissue sample, analysis a [1]: 0,0; N-acyl-derivative in tissue sample, analysis b [1]: 0,0; N-acyl-derivative in tissue sample, mean [1]: 0,0; N-acyl-derivative in tissue sample, mean [8]: 53,4
CCCCCCCCCCCCCCCCCCCCCCCC(=O)N[C@@H](C)[C@@H](O)C[C@H](O)CCCC[C@@H](O)C[C@H](C)C[C@H](O)[C@H](O)[C@H](C)CCCC [HFB1C24:0] | 0,0 | 0,0 | 0,0 | 0,0 | 0,0 | 0,0 | 3,0 | 2,7 | 2,9 | 0,0 | 0,0 | 0,0 | 0,0 | 0,0 | 0,0 | 0,0 | 0,0 | 0,0 | 25,0 | 23,5 | N-acyl-derivative in tissue sample, mean [8]: 24,2
CCCCCCCC/C=C\CCCCCCCCCCCCCC(=O)N[C@@H](C)[C@@H](O)C[C@H](O)CCCC[C@@H](O)C[C@H](C)C[C@H](O)[C@H](O)[C@H](C)CCCC [HFB1C24:1] | 0,4 | 0,0 | 0,2 | 0,1 | 0,0 | 0,0 | 7,9 | 10,8 | 9,3 | 0,0 | 0,0 | 0,0 | 0,0 | 0,1 | 0,1 | 0,4 | 0,0 | 0,2 | 156,0 | 140,5 | N-acyl-derivative in tissue sample, analysis a [1]: 0,0; N-acyl-derivative in tissue sample, analysis b [1]: 0,0; N-acyl-derivative in tissue sample, mean [1]: 0,0; N-acyl-derivative in tissue sample, mean [8]: 148,3
